Measured values taken from patent US20190367868A1, “NEURONS AND COMPOSITIONS AND METHODS FOR PRODUCING THE SAME” (President and Fellows of Harvard College, priority 2015, published 2019).
Values joined by “and” are separate entries in the source; they are usually repeats but may differ in a detail not shown here. Equal values may be shown once.

Key:
Assay type in all cases: cell-based, human
[1] = system: HUES9-derived motor neurons; assay: GCaMP6 Ca2+ imaging after GABA and AMPA application; settings: 100 μM, motor neurons cultured for 3 weeks after sphere dissociation
Description: Patch-clamp recordings were performed to further understand the electrophysiological characteristics of motor neurons from dissociated spheres.
For Ca^2+ imaging during the GABA switchover experiment cells were transduced with AAV1.Syn.GCaMP6s.WPRE.SV40 4 days after plating. During recording, coverslips were transferred to a perfusion chamber mounted on a Nikon Eclipse TE2000 microscope. Time-lapse recordings were performed at RT at a rate of 1 frame per second. GABA and AMPA were prepared and applied for 10 seconds in the same bath solution as used for electrophysiology. Mean fluorescent intensity of GCaMP6 fluorescence was measured in soma by ImageJ (U.S. National Institutes of Health, available at the world wide web at subdomain //imagej.nih.gov/ij/) and plotted by Igor. The amplitude was normalized to baseline fluorescent level (mean of 5 frames before drug application) for each cell. Background fluorescent level was determined in a cell-free area for each recording and subtracted.

[2] = system: HUES8-derived cortical neurons; assay: phospho-CREB immunocytochemistry after KCl depolarization of dissociated cortical neurons
Description: (§1) It is well known that synaptic activation through depolarization induces a transcriptional response in neurons (Ebert and Greenberg, 2013; Flavell et al., 2008; Hong et al., 2008; Lin et al., 2008). A key event in many types of neurons, including cortical neurons, is the phosphorylation of the transcription factor CREB. To examine whether neurons from dissociated cortical spheres responded to activation, we depolarized them with KCl.
(§2) Cell cultures were fixed in 4% paraformaldehyde (PFA) in PBS at room temperature (RT) for 20 min, then blocked for 20 min in 5% horse serum (HS) (Gibco) and 0.1% Triton X-100 (Sigma) in PBS. Cells were incubated with primary antibodies overnight at 4° C. Secondary antibodies were applied for 1 hr at room temperature. Whole spheres were cleared using the SeeDB protocol as follows: samples were fixed in 4% PFA and blocked for 24-48 hrs in 0.1% Triton X-100 and 5% HS at 4° C. Samples were then incubated with primary antibodies for 2-3 days at 4° C. in either blocking solution or 10% HS. Samples were washed with PBS 3 times and incubated with secondary antibodies for 3 days in either blocking solution or 10% HS. Following washing with PBS, samples were serially incubated in 20%, 40%, 60%, and 80% (wt/vol) fructose for 6-12 hrs at 25° C. Samples were immersed in 100% (wt/vol) fructose for 24 hrs, followed by SeeDB (115%, wt/vol) for at least 24 hrs at 25° C. All solutions were prepared with H2O and contained 0.5% α-thioglycerol. Samples were stored in SeeDB at 4° C.
The primary antibodies used in this study were raised against PAX6 (Covance), OTX1-2, Ki67, TBR1, SATB2, CTIP2, and ISL1 (Abcam), GLUR1, and ChAT (Millipore), SYNAPSINI (Synaptic System), TUJ1 (Covance), and MAP2 (Lifespan Biosciences). Secondary antibodies were AlexaFluor488, -546, -555, and -647-conjugated antibodies raised against the appropriate species (Invitrogen). Immunocytochemical images were acquired on the Opera High-Content Screening System (PerkinElmer). Immunohistochemical images and Ca^2+ imaging was acquired on the Nikon Eclipse TE2000-S microscope equipped with a heated stage and a humidified chamber with atmospheric control. 3D LSFM was performed on the ZEISS Lightsheet.Z1 Microscope Quantitative image analysis of neuronal cultures was done using PerkinElmer Columbus Image Data Storage and Analysis System v2.3.3.
[…] Neurons were silenced overnight with TTX (Natchannel-blocker) (EMD Bioscience, 1 μM) and AP-V (NMDAR antagonist) (Sigma Aldrich, 100 μM), two compounds that together inhibit any spontaneous activity in cultured neurons. […] Phospho-CREB was detected by immunostaining as described.

[3] = system: cortical neurons from dissociated cortical spheres; assay: qRT-PCR of activity-induced genes after KCl stimulation of cortical neurons; settings: KCl-stimulated cortical neurons, by one hour after stimulation
Description: as §1
Total RNA was isolated using RNeasy mini kit (QIAGEN) and subsequent cDNA synthesis with iSCRIPT (Bio-Rad). qRT-PCR was then performed using SYBER green (Bio-Rad) on a QuantStudio™ 12 K Flex Real-Time PCR System (Life Technologies). Quantitative levels for all genes were normalized to endogenous GAPDH. Expression levels of individual genes were normalized to the levels in undifferentiated human ESC/iPSC of each line. For KCL experiments, expression levels were normalized to the levels in untreated cells.
KCl experiments were performed on spheres at day 20 of differentiation and on dissociated neurons 10 days after dissociation. Neurons were silenced overnight with TTX (Natchannel-blocker) (EMD Bioscience, 1 μM) and AP-V (NMDAR antagonist) (Sigma Aldrich, 100 μM), two compounds that together inhibit any spontaneous activity in cultured neurons. […] Phospho-CREB was detected by immunostaining as described.

[4] = system: dissociated neurons from motor neuron spheres; assay: phospho-CREB immunocytochemistry after KCl depolarization of motor neurons
Description: When stimulated with sonic hedgehog and retinoic acid at the proper doses and time points, differentiating cells within the spheres adopt the motor neuron fate and can be dissociated and replated without glial feeder layers.
as §2, with “All solutions were prepared with H2O and contained 0.5% α-thioglycerol. Samples were stored in SeeDB at 4° C.” left out
KCl experiments were performed on spheres at day 20 of differentiation and on dissociated neurons 10 days after dissociation. […] Phospho-CREB was detected by immunostaining as described.

SMILES	intracellular Ca2+ response (GCaMP6 fluorescence) [1]	relative proportion of neurons positive for phospho-CREB, 30 min KCl ([2]; HUES8-derived cortical neurons 20 days after dissociation, KCl (60 mM) for 30 min, replicates and average of three independent experiments)	relative proportion of neurons positive for phospho-CREB, 1 hr KCl ([2]; HUES8-derived cortical neurons 20 days after dissociation, KCl (60 mM) for 1 hr, replicates and average of three independent experiments)	relative proportion of neurons positive for phospho-CREB, 6 hr KCl ([2]; HUES8-derived cortical neurons 20 days after dissociation, KCl (60 mM) for 6 hrs, replicates and average of three independent experiments)	phosphorylation of CREB after depolarization ([2]; neurons from dissociated cortical spheres depolarized with KCl)	transcription of the early-induced genes NPAS4, cFOS, and ARC [3]	phosphorylation of CREB in motor neurons after KCl depolarization [4]
Cc1o[nH]c(=O)c1CC(N)C(=O)O (centres unmarked) [AMPA]	responded	–	–	–	–	–	–
NCCCC(=O)O [GABA]	responded	–	–	–	–	–	–
[Cl-].[K+] [KCl]	–	45% and 35% and 38%	38% and 34% and 32%	29% (2×) and 36%	robust phosphorylation of CREB	increased transcription	phosphorylation of CREB
